{
  "source": "patent US20250288584A1",
  "about": "“COMBINATIONS COMPRISING POSITIVE ALLOSTERIC MODULATORS OR ORTHOSTERIC AGONISTS OF METABOTROPIC GLUTAMATERGIC RECEPTOR SUBTYPE 2 AND THEIR USE” (JANSSEN PHARMACEUTICA NV, priority 2014, published 2025)",
  "key": {"corneal kindled seizures": {"test_system": "corneal kindled seizures", "assay": "Mouse corneal kindling model", "type": "in vivo, mice", "settings": "100 mg/kg s.c.; Racine score 0-5", "procedure": "After the mice reached a stable kindled state, the test compound or vehicle was administered and, at the previously determined TPE, each animal was given the electrical stimulus indicated above. […] One dose of LEV and two doses of Co."}, "[1]": {"assay": "Minimal motor impairment (rotarod)", "type": "in vivo, mice", "settings": "for # rotarod motor impairment/# tested: 0.5 h", "procedure": "Acute MMI was assessed by a combination of direct observations of the animal for overt symptoms of the animal's neurological or muscular function. In mice, the rotarod procedure was used to disclose minimal muscular or neurological impairment. When a mouse is placed on a rod that rotates at a speed of 6 rpm, the animal can maintain its equilibrium for long periods of time. The animal was considered toxic if it fell off this rotating rod three times during a 1 min period.\nIn the determination of an ED50 or TD50 for each test compound, the first dose administered is usually the same dose as that used in a successful TPE determination.\nIf the initial dose employed was effective or toxic in more than 50% of animals, the next dose would be one-half that of the initial dose; if the initial dose was effective or toxic in less than 50% of animals, the following dose would be twice that of the initial dose. Third and fourth doses were selected to produce an evenly spaced dose response line. There should be a minimum of 4 points either including or lying between 0 and 100%."}, "mGlu5a": {"molecular_target": "mGlu5a (Homo sapiens, UniProt P41594)", "sequence (P41594 21-1180 isoform P41594-2)": "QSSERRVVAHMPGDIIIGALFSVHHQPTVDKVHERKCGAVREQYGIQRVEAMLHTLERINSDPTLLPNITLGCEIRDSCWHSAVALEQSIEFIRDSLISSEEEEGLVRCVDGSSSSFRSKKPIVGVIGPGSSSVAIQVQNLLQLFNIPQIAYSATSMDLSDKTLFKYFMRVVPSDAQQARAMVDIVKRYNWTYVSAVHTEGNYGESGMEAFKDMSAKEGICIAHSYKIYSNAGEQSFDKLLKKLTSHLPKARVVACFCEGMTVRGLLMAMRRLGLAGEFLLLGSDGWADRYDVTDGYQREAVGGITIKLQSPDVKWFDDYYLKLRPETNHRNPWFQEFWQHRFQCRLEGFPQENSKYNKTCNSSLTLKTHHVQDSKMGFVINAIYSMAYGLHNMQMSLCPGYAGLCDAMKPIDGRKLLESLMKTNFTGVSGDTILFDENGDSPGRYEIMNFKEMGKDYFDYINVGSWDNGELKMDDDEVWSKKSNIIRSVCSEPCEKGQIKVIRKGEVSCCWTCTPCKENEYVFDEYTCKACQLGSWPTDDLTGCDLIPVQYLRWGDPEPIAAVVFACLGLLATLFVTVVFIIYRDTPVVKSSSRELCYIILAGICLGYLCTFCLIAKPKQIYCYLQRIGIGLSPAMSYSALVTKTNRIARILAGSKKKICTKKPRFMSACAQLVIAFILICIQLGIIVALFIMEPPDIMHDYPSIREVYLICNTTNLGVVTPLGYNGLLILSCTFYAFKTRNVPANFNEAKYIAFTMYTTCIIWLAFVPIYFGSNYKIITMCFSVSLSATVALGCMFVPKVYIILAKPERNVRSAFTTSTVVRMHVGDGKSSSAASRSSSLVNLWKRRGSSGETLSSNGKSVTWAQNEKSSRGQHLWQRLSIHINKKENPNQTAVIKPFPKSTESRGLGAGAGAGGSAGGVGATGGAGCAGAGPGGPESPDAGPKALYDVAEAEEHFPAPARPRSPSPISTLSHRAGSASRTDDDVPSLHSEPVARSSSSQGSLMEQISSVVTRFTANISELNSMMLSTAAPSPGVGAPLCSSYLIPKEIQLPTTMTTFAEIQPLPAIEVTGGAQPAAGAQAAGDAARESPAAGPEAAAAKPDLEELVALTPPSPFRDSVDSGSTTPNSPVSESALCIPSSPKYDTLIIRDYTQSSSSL", "settings": "cited from earlier work"}, "[2]": {"test_system": "6 Hz (32 mA) psychomotor seizures", "assay": "6 Hz psychomotor seizure test, 32 mA (incl. TPE determination)", "type": "in vivo, mice", "settings": "for # protected/# tested: 0.5 h", "procedure": "Test compounds were administered using an optimal fluid volume to body fluid ratio. Test compounds were administered to mice in a volume of 0.01 mL/g of body weight (White H. S., et al., General Principles: Experimental selection, quantification, and evaluation of antiepileptic drugs, in Antiepileptic Drugs, Fourth Edition, […], and B. S. Meldrum, Editors. 1995, Raven Press, Ltd.: New York, pp. 99-110). For subcutaneous (s.c.) administration, the test compounds were administered into a loose fold of skin along the back of the animal except compound 6-b, which was administered orally (p.o). […] The animals were maintained on an adequate diet (Prolab RMH 3000) and allowed free access to food and water, except during the short time they were removed from their cage for testing. Animals newly received in the laboratory were allowed sufficient time to correct for possible food and water restriction incurred during transit before being employed in testing. All mice were housed in plastic cages in specially constructed rooms with controlled humidity, exchange of air and controlled lighting (12 hours on-12 hours off). The animals were housed, fed, and handled in a manner consistent with the recommendations in the National Council Publication, “Guide for the Care and Use of Laboratory Animals”. In the determination of an ED50 or TD50 for each test compound, the first dose administered is usually the same dose as that used in a successful TPE determination. […] Third and fourth doses were selected to produce an evenly spaced dose response line. […] TPE was determined using the 6 Hz (32 mA) assay. […] The 6 Hz seizure test is used as a model of pharmacoresistant limbic seizures. […] Focal seizures were induced in mice via corneal stimulation (6 Hz, 0.2 msec rectangular pulse, 3 sec duration; Barton et al. 2001). Mice were tested at either 32 mA or 44 mA. […] The seizures that arise from corneal stimulation in this assay are characterized by a minimal clonic phase followed by stereotyped automatistic behaviors including stun, forelimb clonus, twitching of the vibrissae, and Straub-tail. Animals not displaying these behaviors were considered protected."}, "mGlu1a": {"molecular_target": "mGlu1a (Homo sapiens, UniProt Q13255)", "sequence (Q13255 19-1194)": "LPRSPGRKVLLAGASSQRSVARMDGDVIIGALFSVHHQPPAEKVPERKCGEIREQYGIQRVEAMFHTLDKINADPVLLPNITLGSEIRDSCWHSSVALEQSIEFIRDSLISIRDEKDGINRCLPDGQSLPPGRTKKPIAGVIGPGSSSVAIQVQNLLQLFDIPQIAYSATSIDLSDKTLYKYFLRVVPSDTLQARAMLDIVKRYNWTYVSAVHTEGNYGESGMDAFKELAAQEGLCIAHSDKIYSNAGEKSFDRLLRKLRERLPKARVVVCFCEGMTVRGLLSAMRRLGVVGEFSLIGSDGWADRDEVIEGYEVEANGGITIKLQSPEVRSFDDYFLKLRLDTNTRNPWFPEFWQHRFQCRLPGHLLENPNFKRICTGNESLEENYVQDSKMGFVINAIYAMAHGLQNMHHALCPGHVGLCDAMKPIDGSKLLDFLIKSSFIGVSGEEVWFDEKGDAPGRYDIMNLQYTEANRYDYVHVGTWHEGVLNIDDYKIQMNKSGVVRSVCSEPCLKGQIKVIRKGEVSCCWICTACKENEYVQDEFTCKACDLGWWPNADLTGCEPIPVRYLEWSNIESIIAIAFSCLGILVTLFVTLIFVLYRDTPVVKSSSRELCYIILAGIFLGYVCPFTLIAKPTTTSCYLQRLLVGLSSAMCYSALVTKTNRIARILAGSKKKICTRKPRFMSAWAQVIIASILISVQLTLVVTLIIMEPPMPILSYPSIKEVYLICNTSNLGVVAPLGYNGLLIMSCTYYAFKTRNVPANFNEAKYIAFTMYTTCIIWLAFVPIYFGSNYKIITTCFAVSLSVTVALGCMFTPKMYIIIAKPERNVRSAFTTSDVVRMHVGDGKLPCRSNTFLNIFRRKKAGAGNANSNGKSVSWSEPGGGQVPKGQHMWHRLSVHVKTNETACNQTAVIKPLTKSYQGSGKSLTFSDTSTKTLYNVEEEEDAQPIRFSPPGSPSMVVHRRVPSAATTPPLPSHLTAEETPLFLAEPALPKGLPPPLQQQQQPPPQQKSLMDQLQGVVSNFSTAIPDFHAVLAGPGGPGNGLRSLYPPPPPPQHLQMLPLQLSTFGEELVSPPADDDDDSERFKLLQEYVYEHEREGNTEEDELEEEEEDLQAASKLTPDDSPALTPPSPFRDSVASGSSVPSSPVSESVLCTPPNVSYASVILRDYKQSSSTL", "settings": "cited from earlier work"}, "[3]": {"test_system": "6 Hz (44 mA) psychomotor seizures", "assay": "6 Hz psychomotor seizure test, 44 mA (alone, combination with LEV, isobolographic study)", "type": "in vivo, mice", "procedure,_shortened": "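Mice dosed s.c. or p.o. at 0.01 mL/g, alone or with LEV at fixed dose ratios proportional to ED50 values. Focal seizures induced by corneal stimulation (6 Hz, 0.2 msec pulse, 3 sec, 44 mA); animals without stun, forelimb clonus, vibrissae twitch or Straub-tail were counted as protected. ED50 values derived, with combinations analysed isobolographically.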"}},
  "data": [
    {"compound": "N[C@@]1(C(=O)O)CS(=O)(=O)[C@H]2[C@H](C(=O)O)[C@H]21", "note": "[LY-404039, reference compound]", "values": [
      {"measurement": "Seizure score (dose) Corneal kindling", "setting": "corneal kindled seizures", "value": 3.1},
      {"measurement": "# rotarod motor impairment/# tested", "setting": "[1]; 5 mg/kg s.c., 32 mA group", "value": "1/16"},
      {"measurement": "# rotarod motor impairment/# tested", "setting": "[1]; 5 mg/kg s.c., 44 mA group", "value": "0/16"},
      {"measurement": "# rotarod motor impairment/# tested", "setting": "[1]; 10 mg/kg s.c., 32 mA group", "value": "0/8"},
      {"measurement": "# rotarod motor impairment/# tested", "setting": "[1]; 10 mg/kg s.c., 44 mA group", "value": "1/8"},
      {"measurement": "# rotarod motor impairment/# tested", "setting": "[1]; 20 mg/kg s.c., 32 mA group", "value": "1/8"},
      {"measurement": "# rotarod motor impairment/# tested", "setting": "[1]; 20 mg/kg s.c., 44 mA group", "value": "1/8"},
      {"measurement": "# rotarod motor impairment/# tested", "setting": "[1]; 40 mg/kg s.c., 32 mA group", "value": "1/8"},
      {"measurement": "# rotarod motor impairment/# tested", "setting": "[1]; 40 mg/kg s.c., 44 mA group", "value": "2/8"},
      {"measurement": "mice with impairment out of total", "setting": "[1]; 40 mg/kg s.c., 32 mA and 44 mA groups combined", "value": "^a40 mg/kg-3 out of 16 total (32 mA and 44 mA combined) with impairment."},
      {"measurement": "TD50 at 0.5 h", "setting": "[1]; mouse, in vivo, sc, rotarod", "value": "> 40", "unit": "mg/kg"},
      {"measurement": "activity at mGlu5a", "setting": "mGlu5a", "value": "no activity"},
      {"measurement": "# protected/# tested", "setting": "[2]; 5 mg/kg s.c.", "value": "1/16"},
      {"measurement": "# protected/# tested", "setting": "[2]; 10 mg/kg s.c.", "value": "5/8"},
      {"measurement": "# protected/# tested", "setting": "[2]; 20 mg/kg s.c.", "value": "6/8"},
      {"measurement": "# protected/# tested", "setting": "[2]; 40 mg/kg s.c.", "value": "8/8"},
      {"measurement": "ED50", "setting": "[2]; Mus musculus, sc, at TPE, read-out: ED50 (95% CI) 32 mA", "value": 10.2, "unit": "mg/kg"},
      {"measurement": "activity in the 6 Hz 32 mA test", "setting": "[2]; result in words", "value": "activity in both 6 Hz tests was seen"},
      {"measurement": "ED50 (95% CI) 32 mA", "setting": "[2]; s.c., at TPE", "value": "ED50 (95% CI): 10.9 mg/kg (7.8 to 15.9)"},
      {"measurement": "activity at mGlu1a", "setting": "mGlu1a", "value": "no activity"},
      {"measurement": "activity when administered alone", "setting": "[3]; 5 mg/kg s.c.", "value": "^bLY404039 (s.c.) 5 mg/kg tested in combination with LEV (i.p.); LY404039 5 mg/kg was not active when administered alone."},
      {"measurement": "responders at 5 mg/kg", "setting": "[3]; Mus musculus, sc, 0.5 h, 5 mg/kg s.c., 0.5 h, read-out: # protected/# tested", "value": 0, "unit": "%"},
      {"measurement": "responders at 10 mg/kg", "setting": "[3]; Mus musculus, sc, 0.5 h, 10 mg/kg s.c., 0.5 h, read-out: # protected/# tested (converted)", "value": 37.5, "unit": "%"},
      {"measurement": "responders at 20 mg/kg", "setting": "[3]; Mus musculus, sc, 0.5 h, 20 mg/kg s.c., 0.5 h, read-out: # protected/# tested (converted)", "value": 87.5, "unit": "%"},
      {"measurement": "responders at 40 mg/kg", "setting": "[3]; Mus musculus, sc, 0.5 h, 40 mg/kg s.c., 0.5 h, read-out: # protected/# tested (converted)", "value": 87.5, "unit": "%"},
      {"measurement": "ED50", "setting": "[3]; Mus musculus, sc, at TPE, compound alone, read-out: ED50 (95% CI) 44 mA", "value": 14.1, "unit": "mg/kg"},
      {"measurement": "activity in the 6 Hz 44 mA test", "setting": "[3]; result in words", "value": "activity in both 6 Hz tests was seen"},
      {"measurement": "pharmacodynamic interaction with LEV in the 6 Hz model", "setting": "[3]; result in words", "value": "synergy was seen"}
    ]}
  ]
}
